Reference: BindingDB's records for doi:10.1007/bf00168610 (UniversitÄT Heidelberg, 1991)
Where “and” joins values, the source holds several entries; their conditions need not be identical. Identical values can stand only once.

Columns and labels:
Adenosine receptor A1 [1] = molecular target: T1, Adenosine receptor A1 (Oryctolagus cuniculus, UniProt P34970)
T1 sequence (P34970 whole entry): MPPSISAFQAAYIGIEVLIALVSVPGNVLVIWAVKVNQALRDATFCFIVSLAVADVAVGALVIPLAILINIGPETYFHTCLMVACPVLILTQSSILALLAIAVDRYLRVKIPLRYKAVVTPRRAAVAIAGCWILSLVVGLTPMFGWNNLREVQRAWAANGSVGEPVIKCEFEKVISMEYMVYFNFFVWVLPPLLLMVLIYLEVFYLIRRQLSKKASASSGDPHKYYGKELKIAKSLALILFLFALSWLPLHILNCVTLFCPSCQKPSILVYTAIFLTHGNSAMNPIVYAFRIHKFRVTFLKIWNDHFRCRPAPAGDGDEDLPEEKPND

Adenosine receptor A3 = molecular target: T2, Adenosine receptor A3 (Ovis aries, UniProt P35342)
T2 sequence (P35342 whole entry): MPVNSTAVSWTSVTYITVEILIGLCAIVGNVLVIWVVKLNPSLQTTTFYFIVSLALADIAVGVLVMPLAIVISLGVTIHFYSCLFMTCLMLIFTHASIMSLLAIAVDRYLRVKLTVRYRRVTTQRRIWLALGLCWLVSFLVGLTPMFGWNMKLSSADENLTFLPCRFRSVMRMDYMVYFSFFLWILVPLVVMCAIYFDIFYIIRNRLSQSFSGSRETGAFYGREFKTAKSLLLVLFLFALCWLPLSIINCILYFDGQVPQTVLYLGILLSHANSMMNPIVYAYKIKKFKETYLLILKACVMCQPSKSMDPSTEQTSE

P2Y purinoceptor 2 = P2Y purinoceptor 2 (Cricetulus griseus, UniProt P58825)
Adenosine receptor A1 [2] = molecular target: T3, Adenosine receptor A1 (Bos taurus, UniProt P28190)
T3 sequence (P28190 whole entry): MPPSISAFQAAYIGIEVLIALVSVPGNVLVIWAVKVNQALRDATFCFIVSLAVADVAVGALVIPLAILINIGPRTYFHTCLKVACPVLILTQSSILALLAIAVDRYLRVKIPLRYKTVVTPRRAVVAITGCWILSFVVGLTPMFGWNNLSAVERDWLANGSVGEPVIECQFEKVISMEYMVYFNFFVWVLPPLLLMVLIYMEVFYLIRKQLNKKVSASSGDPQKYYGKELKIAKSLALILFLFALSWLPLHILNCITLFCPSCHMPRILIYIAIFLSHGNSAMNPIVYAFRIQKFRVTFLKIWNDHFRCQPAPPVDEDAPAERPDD

Adenosine receptor A1 [3] = molecular target: T4, Adenosine receptor A1 (Rattus norvegicus, UniProt P25099)
T4 sequence (P25099 whole entry): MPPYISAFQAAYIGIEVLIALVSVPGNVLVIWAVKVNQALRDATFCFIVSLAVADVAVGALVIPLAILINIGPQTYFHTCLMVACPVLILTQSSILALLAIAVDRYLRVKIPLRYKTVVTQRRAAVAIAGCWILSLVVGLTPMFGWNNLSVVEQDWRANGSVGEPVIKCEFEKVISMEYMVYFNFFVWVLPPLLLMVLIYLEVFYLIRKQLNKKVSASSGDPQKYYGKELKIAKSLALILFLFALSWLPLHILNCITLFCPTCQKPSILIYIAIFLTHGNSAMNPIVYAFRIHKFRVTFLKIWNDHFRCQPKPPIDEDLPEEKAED

Adenosine receptor A1 [4] = molecular target: T5, Adenosine receptor A1 (Cavia porcellus, UniProt P47745)
T5 sequence (P47745 whole entry): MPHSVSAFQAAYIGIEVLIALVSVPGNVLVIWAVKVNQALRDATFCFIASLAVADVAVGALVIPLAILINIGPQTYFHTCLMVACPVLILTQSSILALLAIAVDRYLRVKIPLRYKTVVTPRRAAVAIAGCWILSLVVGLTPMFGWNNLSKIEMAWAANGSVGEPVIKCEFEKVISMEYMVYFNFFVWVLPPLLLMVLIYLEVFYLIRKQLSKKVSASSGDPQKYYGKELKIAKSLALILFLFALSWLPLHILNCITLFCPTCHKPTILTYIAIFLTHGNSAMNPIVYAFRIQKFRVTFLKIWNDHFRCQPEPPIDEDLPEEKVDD

P2Y purinoceptor 2, sequence (P58825 whole entry): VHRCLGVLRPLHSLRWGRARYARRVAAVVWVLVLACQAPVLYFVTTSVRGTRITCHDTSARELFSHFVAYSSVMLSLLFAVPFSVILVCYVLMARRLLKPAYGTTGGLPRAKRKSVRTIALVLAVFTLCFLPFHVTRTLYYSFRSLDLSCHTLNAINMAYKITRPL

Row | SMILES | Ki (Adenosine receptor A1 [1]) [nM] | Ki (Adenosine receptor A3) [nM] | Ki (P2Y purinoceptor 2) [nM] | Ki (Adenosine receptor A1 [2]) [nM] | Ki (Adenosine receptor A1 [3]) [nM] | Ki (Adenosine receptor A1 [4])
1 | Cn1c(=O)c2[nH]cnc2n(C)c1=O [Theophylline (1,3-dimethylxanthine)] | 4710 | 9050 | 4550 |  |  | 
2 | CCCn1c(=O)c2[nH]c(-c3ccc(OCC(=O)NCCN)cc3)nc2n(CCC)c1=O [N-(2-Amino-ethyl)-2-[4-(2,6-dioxo-1,3-dipropyl-2,3,6,9-tetrahydro-1H-purin-8-yl)-phenoxy]-acetamide] | 0.45 | 0.09 | 0.31 | 0.03 | 0.49 | 1.48 nM and 5.49 nM
3 | Cn1c(=O)c2[nH]c(C3CCCC3)nc2n(C)c1=O [NSC_1917] | 6.4 | 2.9 | 4.3 | 1.4 | 6.3 | 26.1 nM
4 | CCCn1c(=O)c2[nH]c(C3CCCC3)nc2n(CCC)c1=O [DPCPX] |  | 0.1 | 0.14 | 0.05 |  | 
